Reference: patent US20230051694A1, “POLYPEPTIDE FRAGMENT B (MP-B) AND USE THEREOF” (SHANGHAI LONGXIN BIOMEDICAL TECHNOLOGY CO., LTD., priority 2021, published 2023)

Tested on: DSS-induced IBD in mice
Assay: Intervention effect on DSS-induced acute IBD mouse model
Assay type: in vivo, Male C57BL6 mice
Conditions: DSS 2.5 wt % induced acute IBD mice, 50 μg/kg intragastric; for colonic histopathologic score / colon length: 7 days pre-administration then daily with DSS, x±SD; for colonic histopathologic score: HE staining; for colon length: in cm (unit assumed)
Description: The administration of a DSS solution with a specified concentration to mice can induce an acute IBD model characterized by diarrhea, hematochezia, ulcer, and granulocyte infiltration. Mice were randomly grouped according to body weights of the mice. 40 healthy male C57BL6 mice were divided into four groups each with 10 mice:
blank control group: the mice were each intragastrically administered with water every day at a volume of 0.4 mL/20 g;
model group: the mice were each intragastrically administered with a DSS aqueous solution of a mass fraction of 2.5 wt % consecutively for 7 days, where the DSS aqueous solution was freshly prepared and changed every day;
(§1) MIMP positive control group: the mice were each given a pre-administration process for one week, that is, the mice were each intragastrically administered with an MIMP solution of a mass fraction of 50 μg/kg for the first 7 days, and then from day 8, the mice were each intragastrically administered with a DSS aqueous solution of a mass fraction of 2.5 wt % (at a volume of 0.4 mL/20 g) and an MIMP solution of a mass fraction of 50 μg/kg (at a volume of 0.4 mL/20 g) every day; and
as §1, with “MP-B experimental” for “MIMP positive control”, “MP-B” for “MIMP”, “and” for “and then”, “day.” for “day; and”
The body weight changes of mice in each group were recorded every day to determine whether the acute IBD mouse model was successfully established.
A mouse colon between an anus end to an ileocecal end was integrally collected, and a length of the colon was measured; and the colon was dissected along a longitudinal axis, feces therein were rinsed off, and then the colon was stored in 4% paramethanol.
The colon sample stored in 4% paramethanol in step 1.2 was subjected to histopathological section, stained with hematoxylin-eosin (HE), and dehydrated, obtained sections were sealed and examined under an optical microscope, and the histopathological scoring was conducted by two blind examination operators:
Experimental data in the above experimental method were expressed as (x±SD), the GraphPad Prism (ver. 8.0, GraphPad Software Inc., San Diego, Calif., USA) was used to plot a chart, the SPSS Program (ver. 25.0, SPSS Inc., Chicago, Ill., USA) was used for statistical test, and one-way ANOVA or independent two-sample t-test were used for significance test when the normality and homogeneity of variances were met. It was assumed that α=0.05, and P<0.05 indicates a statistically significant difference.

| Molecule | colonic histopathological observation (HE staining micrographs) | colonic histopathologic score | colon length |
| --- | --- | --- | --- |
| SPLGSLDGRETMYNLGGVKYLFARMDQLKKQ (SPLGSLDGRXTMYNLXGVKYLFARXDQLKKQ; Sequence is synthesized; (10)..(10) Xaa can be Arg, Phe, Glu, Thr, or absent; (16)..(16) Xaa can be Asn, Val, Leu, Gly, or absent; (25)..(25) Xaa can be Ser, Glu, Met, Arg, or absent) [MP-B] | no obvious inflammation | 1.4±0.6 | 8.0±0.5 |
| THTVGSYFSVQNGYVGAFSQALGNSEYAMNSPLGSLDGRTTMYNLLGVKYLFAREDQ LKKQ (peptide, listed as Lactobacillus plantarum, positive control) THTVGSYFSVQNGYVGAFSQALGNSEYAMNSPLGSLDGRTTMYNLLGVKYLFAREDQLKKQ | – | 3.1±0.2 | 7.6±0.5 |
